US20010053796A1, “Delta-aminolevulinic acid for prevention and treatment of infection microorganisms and parasite” (priority 2000, published 2001)

Tests used:
[1] = tested on: Edwardsiella tarda; test: Prevention effect for artificial infection (abdominal injection of bacteria); type: in vivo, Bastardhalibut; settings: for Mortality during Cultivation: dead of 20 fish
Procedure: The water temperature was maintained at 20° C. (±2° C. ) throughout the experiment.
As the same method of above Experiment 1, fishes of both control group and experiment group were prepared and artificially infected by direct abdominal injection of Edwardsiella tarda 10^5 CFU per 1 fish. Each experimental fish was moved to fish tanks for monitoring and monitored for mortality according to infection for 2 weeks and viability after 2 weeks.

[2] = tested on: Vibrio anguillarum; test: Treatment effect of infected fry by digestion in breeding water; type: in vivo, Sebastes schlegeli; settings: 50 fish
Procedure: (§1) To be used as experimental fish in this example, fry of Bastardhalibut and Sebastes schlegeli (mean body weight 2 g), 50 per each breeding tank, were preliminary-bred for 1 week and stabilized. […] The artificial infection methods were carried out by the digestion method. Pathogenic organisms were applied into fish tanks and digested in seawater, wherein the concentration of organisms has adjusted to 10^4 CFU/mL for an hour, and infected. Treatment conditions are as follows. After artificial infection. Infected fishes were moved to fish tanks and kept in the infection period for 3 days. On the fourth day of infection, 0.1, 1.0, 5 and 10 ppm δ-aminolevulinic acid were introduced to use as breeding water. Fish was bred in aerobic condition for 1˜24 hours without exchanging water and then, bred for 2 weeks after exchanging with clean seawater. Then, they were monitored to check for the mortality of fish according to infection. In the control groups, after each bacteria were identically introduced through the digestion method, mortality of Bastardhalibut and Sebastes schlegeli according to bacteria infection was identified while breeding with non-treated condition of δ-aminolevulinic acid. As a result of this experiment, δ-aminolevulinic acid-treated groups have shown high viability in both Bastardhalibut (Table 12˜Table 15) and Sebastes schlegeli (Table 16˜Table 19).

[3] = tested on: Pseudomonas sp.; test: as above; type: in vivo, Sebastes schlegeli; settings: 50 fish
Procedure: as §1

[4] = tested on: Edwardsiella tarda; test: as above; type: in vivo, Sebastes schlegeli; settings: 50 fish
Procedure: as §1

[5] = tested on: Staphylococcus sp.; test: as above; type: in vivo, Sebastes schlegeli; settings: 50 fish
Procedure: as §1

[6] = tested on: Staphylococcus epidermis; test: as above; type: in vivo, Sebastes schlegeli; settings: 50 fish
Procedure: as §1

[7] = tested on: Streptococcus sp.; test: as above; type: in vivo, Sebastes schlegeli; settings: 50 fish
Procedure: as §1

[8] = tested on: Staphylococcus sp.; test: Prevention effect for artificial infection (abdominal injection of bacteria); type: in vivo, Bastardhalibut; settings: for Mortality during Cultivation: dead of 20 fish
Procedure: The water temperature was maintained at 20° C. (±2° C. ) throughout the experiment. […]
Bastardhalibut and Sebastes schlegeli were infected by Staphylococcus sp. by abdominal injection with the same method of fish breeding δ-aminolevulinic acid treatment and artificial infection carried out in Experiment 1 and 2. Each experimental fish was moved to fish tanks for monitoring and monitored for mortality according to infection for 2 weeks.

[9] = digestion 0.1 ppm from 4th day of infection, Sebastes schlegeli fry
[10] = digestion 1.0 ppm from 4th day of infection, Sebastes schlegeli fry
[11] = digestion 5.0 ppm from 4th day of infection
[12] = digestion 10 ppm from 4th day of infection, Sebastes schlegeli fry
[13] = digestion 5.0 ppm from 4th day of infection, in Sebastes schlegeli
[14] = digestion 10 ppm from 4th day of infection

Structure (SMILES): NCC(=O)CCC(=O)O [δ-aminolevulinic acid]
- Viability ([1]; orally, 0.01 ppm in feed): 75%
- Mortality during Cultivation ([1]; orally, 0.01 ppm in feed): 5
- Viability ([1]; orally, 1.0 ppm in feed): 70%
- Mortality during Cultivation ([1]; orally, 1.0 ppm in feed): 6
- Viability ([1]; orally, 10 ppm in feed): 85%
- Mortality during Cultivation ([1]; orally, 10 ppm in feed): 3
- Viability ([1]; orally, 100 ppm in feed): 95%
- Mortality during Cultivation ([1]; orally, 100 ppm in feed): 1
- Viability ([1]; to fish tanks, 0.01 ppm): 65%
- Mortality during Cultivation ([1]; to fish tanks, 0.01 ppm): 7
- Viability ([1]; to fish tanks, 0.1 ppm): 75%
- Mortality during Cultivation ([1]; to fish tanks, 0.1 ppm): 5
- Viability ([1]; to fish tanks, 1.0 ppm): 85%
- Mortality during Cultivation ([1]; to fish tanks, 1.0 ppm): 3
- Viability ([1]; to fish tanks, 10 ppm): 90%
- Mortality during Cultivation ([1]; to fish tanks, 10 ppm): 2
- Viability [2, 9]: 50%
- Viability [2, 10]: 74%
- Viability [2, 11]: 84%
- Viability [2, 12]: 86%
- Viability [3, 9]: 40%
- Viability [3, 10]: 76%
- Viability [3, 13]: 86%
- Viability [3, 14]: 84%
- Viability [4, 9]: 60%
- Viability [4, 10]: 80%
- Viability [4, 13]: 84%
- Viability [4, 12]: 94%
- Viability [5, 9]: 50%
- Viability [5, 10]: 76%
- Viability [5, 11]: 84%
- Viability [5, 12]: 86%
- Viability [6, 9]: 40%
- Viability [6, 10]: 70%
- Viability [6, 13]: 66%
- Viability [6, 14]: 84%
- Viability [7, 9]: 50%
- Viability [7, 10]: 76%
- Viability [7, 13]: 86%
- Viability [7, 12]: 86%
- Viability ([8]; orally, 0.1 ppm in feed): 55%
- Mortality during Cultivation ([8]; orally, 0.1 ppm in feed): 9
- Viability ([8]; orally, 1.0 ppm in feed): 65%
- Mortality during Cultivation ([8]; orally, 1.0 ppm in feed): 7
- Viability ([8]; orally, 10 ppm in feed): 95%
- Mortality during Cultivation ([8]; orally, 10 ppm in feed): 1
- Viability ([8]; orally, 100 ppm in feed): 90%
- Mortality during Cultivation ([8]; orally, 100 ppm in feed): 2
- Viability ([8]; to fish tanks, 0.01 ppm): 55%
- Mortality during Cultivation ([8]; to fish tanks, 0.01 ppm): 9
- Viability ([8]; to fish tanks, 0.1 ppm): 75%
- Mortality during Cultivation ([8]; to fish tanks, 0.1 ppm): 5
- Viability ([8]; to fish tanks, 1.0 ppm): 90%
- Mortality during Cultivation ([8]; to fish tanks, 1.0 ppm): 2
- Viability ([8]; to fish tanks, 10 ppm): 95%
- Mortality during Cultivation ([8]; to fish tanks, 10 ppm): 1
